# Measurements: US20200024278A1, “COMPOSITION COMPRISING ANTIBIOTIC COMPOUND AND AN HETEROCYCLIC COMPOUND AND THEIR USE IN PREVENTING OR TREATING BACTERIAL INFECTIONS” (MUTABILIS, priority 2016, published 2020)
# Like-named read-outs stand apart in the source and are kept apart here.
# Legend:
# Test in all cases: MIC, broth microdilution (CLSI), substance alone or ATB combined with compound at 4 or 8 μg/mL
# ECL P99 = assay type: cell-based, E. cloacae; conditions: ECL P99
# Summary of the method: (§1)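 Broth microdilution; ca-MHB; 5·10^5 CFU/mL; 35° C, 16-20 h; compound alone or fixed 4/8 μg/mL with antibiotic series; endpoint = no visible growth.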
# PAE 105250 = assay type: cell-based, P. aeruginosa; conditions: PAE 105250
# Summary of the method: as §1
# PAE UFR90 = assay type: cell-based, P. aeruginosa; conditions: PAE UFR90; for MIC: Pseudomonas aeruginosa
# Summary of the method: as §1
# PAE UFR48 = assay type: cell-based, P. aeruginosa; conditions: PAE UFR48; for MIC: Pseudomonas aeruginosa
# Summary of the method: as §1
# ECO UFR39 = assay type: cell-based, E. coli; conditions: ECO UFR39
# Summary of the method: as §1
# ECO 190317 = assay type: cell-based, E. coli; conditions: ECO 190317
# Summary of the method: as §1
# [1] = antibiotic alone, read-out: MIC ATB alone
smiles,measurement,setting,value
"NCC[C@H](O)C(=O)N[C@@H]1C[C@H](N)[C@@H](O[C@H]2O[C@H](CN)[C@@H](O)[C@H](O)[C@H]2O)[C@H](O)[C@H]1O[C@H]1O[C@H](CO)[C@@H](O)[C@H](N)[C@H]1O [AN, Amikacin, reference compound]",MIC ATB combined with Example 1 @8 μg/ml,ECL P99; with Example 1 @8 μg/ml,<0.031 µg/mL
same,MIC ATB combined with Example 1 @8 μg/ml,ECL P99; with Example 1 at 8 μg/ml,<0.031 µg/mL
same,MIC ATB combined with Example 7 @8 μgml,ECL P99; with Example 7 at 8 μg/ml,0.063 µg/mL
same,MIC ATB combined with Example 9 @4 μg/ml,ECL P99; with Example 9 @4 μg/ml,<0.031 µg/mL
same,MIC ATB combined with Example 9 @4 μg/ml,ECL P99; with Example 9 at 4 μg/ml,<0.031 µg/mL
same,MIC ATB combined with Example 11 @8 μg/ml,ECL P99; with Example 11 at 8 μg/ml,<0.031 µg/mL
same,MIC ATB combined with Example 12 @8 μg/ml,ECL P99; with Example 12 at 8 μg/ml,<0.031 µg/mL
same,MIC ATB combined with Example 13 @8 μg/ml,ECL P99; with Example 13 at 8 μg/ml,0.125 µg/mL
same,MIC ATB combined with Example 14 @8 μg/ml,ECL P99; with Example 14 at 8 μg/ml,<0.031 µg/mL
same,MIC ATB combined with Example 15 @4 μgml,ECL P99; with Example 15 at 4 μg/ml,<=0.031 μg/mL
same,MIC ATB combined with Example 16 @4 μg/ml,ECL P99; with Example 16 at 4 μg/ml,<0.031 µg/mL
same,MIC,"ECL P99; Enterobacter cloacae, antibiotic alone, read-out: MIC ATB alone",0.063 µg/mL
same,MIC ATB combined with Example 1 @8 μg/ml,PAE 105250; with Example 1 @8 μg/ml,<0.031 µg/mL
same,MIC ATB combined with Example 1 @8 μg/ml,PAE 105250; with Example 1 at 8 μg/ml,<0.031 µg/mL
same,MIC ATB combined with Example 7 @8 μgml,PAE 105250; with Example 7 at 8 μg/ml,2 µg/mL
same,MIC ATB combined with Example 9 @4 μg/ml,PAE 105250; with Example 9 @4 μg/ml,2 µg/mL
same,MIC ATB combined with Example 9 @4 μg/ml,PAE 105250; with Example 9 at 4 μg/ml,2 µg/mL
same,MIC ATB combined with Example 11 @8 μg/ml,PAE 105250; with Example 11 at 8 μg/ml,2 µg/mL
same,MIC ATB combined with Example 12 @8 μg/ml,PAE 105250; with Example 12 at 8 μg/ml,2 µg/mL
same,MIC ATB combined with Example 13 @8 μg/ml,PAE 105250; with Example 13 at 8 μg/ml,2 µg/mL
same,MIC ATB combined with Example 14 @8 μg/ml,PAE 105250; with Example 14 at 8 μg/ml,1 µg/mL
same,MIC ATB combined with Example 15 @4 μgml,PAE 105250; with Example 15 at 4 μg/ml,2 µg/mL
same,MIC ATB combined with Example 16 @4 μg/ml,PAE 105250; with Example 16 at 4 μg/ml,1 µg/mL
same,MIC,"PAE 105250; Pseudomonas aeruginosa, antibiotic alone, read-out: MIC ATB alone",2 µg/mL
same,MIC ATB combined with Example 1 @8 μg/ml,PAE UFR90; with Example 1 @8 μg/ml,<0.031 µg/mL
same,MIC ATB combined with Example 1 @8 μg/ml,PAE UFR90; with Example 1 at 8 μg/ml,<0.031 µg/mL
same,MIC ATB combined with Example 7 @8 μgml,PAE UFR90; with Example 7 at 8 μg/ml,2 µg/mL
same,MIC ATB combined with Example 9 @4 μg/ml,PAE UFR90; with Example 9 @4 μg/ml,2 µg/mL
same,MIC ATB combined with Example 9 @4 μg/ml,PAE UFR90; with Example 9 at 4 μg/ml,2 µg/mL
same,MIC ATB combined with Example 11 @8 μg/ml,PAE UFR90; with Example 11 at 8 μg/ml,2 µg/mL
same,MIC ATB combined with Example 12 @8 μg/ml,PAE UFR90; with Example 12 at 8 μg/ml,2 µg/mL
same,MIC ATB combined with Example 13 @8 μg/ml,PAE UFR90; with Example 13 at 8 μg/ml,2 µg/mL
same,MIC ATB combined with Example 14 @8 μg/ml,PAE UFR90; with Example 14 at 8 μg/ml,2 µg/mL
same,MIC ATB combined with Example 15 @4 μgml,PAE UFR90; with Example 15 at 4 μg/ml,2 µg/mL
same,MIC ATB combined with Example 16 @4 μg/ml,PAE UFR90; with Example 16 at 4 μg/ml,2 µg/mL
same,MIC,PAE UFR90; [1],2 µg/mL
same,MIC,"PAE UFR90; substance alone, read-out: MIC",2 µg/mL
same,MIC ATB combined with Example 1 @8 μg/ml,PAE UFR48; with Example 1 @8 μg/ml,<0.031 µg/mL
same,MIC ATB combined with Example 1 @8 μg/ml,PAE UFR48; with Example 1 at 8 μg/ml,<0.031 µg/mL
same,MIC ATB combined with Example 7 @8 μgml,PAE UFR48; with Example 7 at 8 μg/ml,32 µg/mL
same,MIC ATB combined with Example 9 @4 μg/ml,PAE UFR48; with Example 9 @4 μg/ml,32 µg/mL
same,MIC ATB combined with Example 9 @4 μg/ml,PAE UFR48; with Example 9 at 4 μg/ml,32 µg/mL
same,MIC ATB combined with Example 11 @8 μg/ml,PAE UFR48; with Example 11 at 8 μg/ml,>32 µg/mL
same,MIC ATB combined with Example 12 @8 μg/ml,PAE UFR48; with Example 12 at 8 μg/ml,32 µg/mL
same,MIC ATB combined with Example 13 @8 μg/ml,PAE UFR48; with Example 13 at 8 μg/ml,32 µg/mL
same,MIC ATB combined with Example 14 @8 μg/ml,PAE UFR48; with Example 14 at 8 μg/ml,32 µg/mL
same,MIC ATB combined with Example 15 @4 μgml,PAE UFR48; with Example 15 at 4 μg/ml,>32 µg/mL
same,MIC ATB combined with Example 16 @4 μg/ml,PAE UFR48; with Example 16 at 4 μg/ml,32 µg/mL
same,MIC,PAE UFR48; [1],32 µg/mL
same,MIC,"PAE UFR48; substance alone, read-out: MIC",32 µg/mL
same,MIC ATB combined with Example 1 @8 μg/ml,ECO UFR39; with Example 1 @8 μg/ml,<=0.031 μg/mL
same,MIC ATB combined with Example 1 @8 μg/ml,ECO UFR39; with Example 1 at 8 μg/ml,<=0.031 μg/mL
same,MIC ATB combined with Example 7 @8 μgml,ECO UFR39; with Example 7 at 8 μg/ml,<0.031 µg/mL
same,MIC ATB combined with Example 9 @4 μg/ml,ECO UFR39; with Example 9 @4 μg/ml,<0.031 µg/mL
same,MIC ATB combined with Example 9 @4 μg/ml,ECO UFR39; with Example 9 at 4 μg/ml,<0.031 µg/mL
same,MIC ATB combined with Example 11 @8 μg/ml,ECO UFR39; with Example 11 at 8 μg/ml,<0.031 µg/mL
same,MIC ATB combined with Example 12 @8 μg/ml,ECO UFR39; with Example 12 at 8 μg/ml,<0.031 µg/mL
same,MIC ATB combined with Example 13 @8 μg/ml,ECO UFR39; with Example 13 at 8 μg/ml,0.063 µg/mL
same,MIC ATB combined with Example 14 @8 μg/ml,ECO UFR39; with Example 14 at 8 μg/ml,<0.031 µg/mL
same,MIC ATB combined with Example 15 @4 μgml,ECO UFR39; with Example 15 at 4 μg/ml,<0.031 µg/mL
same,MIC ATB combined with Example 16 @4 μg/ml,ECO UFR39; with Example 16 at 4 μg/ml,<0.031 µg/mL
same,MIC,"ECO UFR39; Escherichia coli, antibiotic alone, read-out: MIC ATB alone",> 32 µg/mL
same,MIC ATB combined with Example 1 @8 μg/ml,ECO 190317; with Example 1 @8 μg/ml,<0.031 µg/mL
same,MIC ATB combined with Example 1 @8 μg/ml,ECO 190317; with Example 1 at 8 μg/ml,<0.031 µg/mL
same,MIC ATB combined with Example 7 @8 μgml,ECO 190317; with Example 7 at 8 μg/ml,<0.031 µg/mL
same,MIC ATB combined with Example 9 @4 μg/ml,ECO 190317; with Example 9 @4 μg/ml,<0.031 µg/mL
same,MIC ATB combined with Example 9 @4 μg/ml,ECO 190317; with Example 9 at 4 μg/ml,<0.031 µg/mL
